The structures appear in SMILES notation.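 These data come from cells grown in 96-well plates and exposed to compound for 48 hours at five concentrations. Definition used: TGI = concentration required for complete inhibition of growth.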

For 13 compounds, TGI results are on record in PubChem BioAssay (NCI).

Among the test systems are CCRF-CEM leukemia; HCT-116 colon; HOP-62 NSCLC; MALME-3M melanoma; NCI-H226 lung; NCI-H460 lung; SF-539 CNS; SK-MEL-2 melanoma; SK-OV-3 ovarian; SW-620 colon; UACC-257 melanoma; MDA-MB-231 breast.
Common to all, as to test: inhibition of tumour cell growth, NCI panel, 48 h

Take `Cc1cccc2c1c1ccc3c(c1n2C)C(=O)C=CC3=O`: the TGI in the assay with CCRF-CEM leukemia amounted to 3.25 µM; with HCT-116 colon, 15.1 µM; with HOP-62 NSCLC, 37.8 µM; in the assay on MALME-3M melanoma, 14 µM; in the assay on NCI-H226 lung, 32.8 µM; with NCI-H460 lung it was 37.8 µM. Moreover, the TGI in the assay with SF-539 CNS is 15 µM; in the assay on SK-MEL-2 melanoma, 33.6 µM; in the assay with SK-OV-3 ovarian it was 37.3 µM; in the assay on SW-620 colon, 4.33 µM; in the assay with UACC-257 melanoma it was 25 µM.

For the compound `COC(=O)c1c(CC(Cc2ccc3c(c2)CCCC3)C(=O)OC)ccc2c1CCCC2` (configuration not stated), the TGI in the assay on CCRF-CEM leukemia, in the assay with HCT-116 colon, with HOP-62 NSCLC, in the assay on MALME-3M melanoma, in the assay on MDA-MB-231 breast and with NCI-H460 lung was > 100 µM in each case. The TGI with SF-539 CNS, with SK-MEL-2 melanoma, in the assay with SK-OV-3 ovarian, in the assay with SW-620 colon and in the assay with UACC-257 melanoma was > 100 µM throughout.

In the case of `COc1cc(C2C(Cl)C(=O)N2NC(=O)c2ccc(NC(C)=O)cc2)ccc1O` (configuration not stated), the TGI with CCRF-CEM leukemia, in the assay on HCT-116 colon, in the assay on HOP-62 NSCLC, with MALME-3M melanoma, in the assay on NCI-H226 lung and in the assay on NCI-H460 lung was > 100 µM each time. In addition, the TGI in the assay with SF-539 CNS, in the assay with SK-MEL-2 melanoma, with SK-OV-3 ovarian, with SW-620 colon and in the assay with UACC-257 melanoma was > 100 µM in each case.

For `NC(=O)c1cc(N(CCO)CCO)c([N+](=O)[O-])cc1[N+](=O)[O-]`, the TGI in the assay with CCRF-CEM leukemia, in the assay with HCT-116 colon, in the assay on HOP-62 NSCLC, in the assay on MALME-3M melanoma, with NCI-H226 lung and in the assay on NCI-H460 lung was > 100 µM throughout. Also, the TGI in the assay on SF-539 CNS, in the assay with SK-MEL-2 melanoma, in the assay with SK-OV-3 ovarian, with SW-620 colon and in the assay with UACC-257 melanoma was > 100 µM in each case.

In the case of `Cc1ccc(-c2nnc(CCCCCCCCc3nnc(-c4ccc(C)cc4O)n3N)n2N)c(O)c1`, the TGI in the assay on HCT-116 colon, in the assay on MALME-3M melanoma, in the assay on MDA-MB-231 breast, with NCI-H460 lung, in the assay with SF-539 CNS and in the assay with SK-MEL-2 melanoma was > 100 µM throughout. In addition, the TGI in the assay on SK-OV-3 ovarian, with SW-620 colon and in the assay on UACC-257 melanoma was > 100 µM throughout.

For `Cc1cc(NC(=O)C2C3C=CC(O3)C2C(=O)O)no1` (configuration not stated), the TGI in the assay with CCRF-CEM leukemia is 38.5 µM; in the assay on HCT-116 colon it was 32 µM; in the assay with HOP-62 NSCLC it was > 100 µM; in the assay on MALME-3M melanoma, > 100 µM; with NCI-H226 lung, > 100 µM; in the assay on NCI-H460 lung it was > 100 µM. Besides, the TGI with SF-539 CNS is 54.9 µM; with SK-MEL-2 melanoma, > 100 µM; with SK-OV-3 ovarian, > 100 µM; in the assay on SW-620 colon it was 5.92 µM; in the assay with UACC-257 melanoma it was 64 µM.

In the case of `CC(=O)NC(CCCCN)C(=O)NCc1ccccc1` (configuration not stated), the TGI with CCRF-CEM leukemia, in the assay on HCT-116 colon, with HOP-62 NSCLC, in the assay on MALME-3M melanoma, in the assay with NCI-H226 lung and in the assay on NCI-H460 lung was > 100 µM each time. For the same compound, the TGI in the assay on SF-539 CNS, in the assay with SK-MEL-2 melanoma, in the assay with SK-OV-3 ovarian, in the assay on SW-620 colon and in the assay on UACC-257 melanoma was > 100 µM throughout.

Take `Cc1nc2n(c1/C=C1/C(=O)Nc3ccccc31)CCS2`: the TGI in the assay on CCRF-CEM leukemia, in the assay with HCT-116 colon, with HOP-62 NSCLC, in the assay on MALME-3M melanoma, with MDA-MB-231 breast and in the assay with NCI-H460 lung was > 100 µM in each case. Further, the TGI was > 100 µM in the assay on SF-539 CNS; 26.2 µM in the assay with SK-MEL-2 melanoma; > 100 µM with SK-OV-3 ovarian; > 100 µM with SW-620 colon; > 100 µM in the assay on UACC-257 melanoma.

As to `CCOC(=O)C(C)Sc1nnc(COc2ccccc2OC)n1-c1ccccc1` (configuration not stated), the TGI with CCRF-CEM leukemia is > 100 µM; in the assay with HCT-116 colon it was > 100 µM; in the assay on HOP-62 NSCLC it was > 100 µM; in the assay with MALME-3M melanoma it was > 100 µM; in the assay with NCI-H226 lung, > 100 µM; in the assay on NCI-H460 lung it was 32.2 µM. The TGI with SF-539 CNS was > 100 µM; in the assay on SK-MEL-2 melanoma, > 100 µM; in the assay with SK-OV-3 ovarian, > 100 µM; in the assay on SW-620 colon, 47 µM; in the assay on UACC-257 melanoma, > 100 µM.

As for `CO[C@H]1O[C@@H]2CO[C@@H](c3ccccc3)O[C@H]2[C@@H]2C/C=C\CCC[C@@]12O`, the TGI was > 100 µM in the assay on CCRF-CEM leukemia; 30.9 µM in the assay with HCT-116 colon; 35.5 µM in the assay on HOP-62 NSCLC; 68.4 µM with MDA-MB-231 breast; 40 µM in the assay on NCI-H226 lung; 33 µM with NCI-H460 lung. Also, the TGI was 34.2 µM in the assay on SK-MEL-2 melanoma, 99.7 µM in the assay with SK-OV-3 ovarian, 81.6 µM with SW-620 colon and 43.2 µM in the assay on UACC-257 melanoma.

With `O=S(=O)(c1ccc(-c2nnc(-c3ccc(F)cc3)o2)cc1)c1ccc(-c2nnc(-c3ccc(F)cc3)o2)cc1`, the TGI in the assay with CCRF-CEM leukemia, with HCT-116 colon, with HOP-62 NSCLC, in the assay on MALME-3M melanoma, in the assay with NCI-H226 lung and with NCI-H460 lung was > 100 µM in each case. Besides, the TGI with SF-539 CNS is > 100 µM; in the assay on SK-MEL-2 melanoma, > 100 µM; in the assay with SK-OV-3 ovarian it was 90.3 µM; with SW-620 colon, > 100 µM; in the assay on UACC-257 melanoma, > 100 µM.

As to `CCN(CC)CCCNC(=O)c1cc2cc(NC(=O)c3cc4cc([N+](=O)[O-])ccc4[nH]3)ccc2[nH]1`, the TGI in the assay with HCT-116 colon is > 100 µM; in the assay with HOP-62 NSCLC it was 93.4 µM; in the assay with MDA-MB-231 breast, > 100 µM; in the assay with NCI-H226 lung, > 100 µM; in the assay on NCI-H460 lung, > 100 µM; with SF-539 CNS it was > 100 µM. The TGI in the assay on SK-MEL-2 melanoma is > 100 µM; in the assay with SK-OV-3 ovarian it was > 100 µM; in the assay with SW-620 colon it was > 100 µM; in the assay on UACC-257 melanoma, 76.9 µM.

`Cn1c([C@H](C#N)C(=O)c2cc(O)ccc2[N+](=O)[O-])nc2ccccc21`: the TGI with CCRF-CEM leukemia, with HCT-116 colon, in the assay on HOP-62 NSCLC, in the assay on MALME-3M melanoma, with MDA-MB-231 breast and with NCI-H460 lung was > 100 µM each time. Further, the TGI with SF-539 CNS, in the assay on SK-MEL-2 melanoma and in the assay on UACC-257 melanoma was > 100 µM in each case.
